One data set deals with migraine. The settings on record: tryptophan administered in the form of 5-HTP; cited from earlier work.
Data set [1] concerns models of Parkinson's disease. The settings on record: intermittent nicotine treatment; cited from earlier work.
The conditions of data set [2]: nicotine after extraction (Example 1); clinical studies.

Take `N[C@@H](Cc1c[nH]c2ccc(O)cc12)C(=O)O` [5-HTP, 5-Hydroxytryptophan]: in the data set with migraine, the “aborting or significantly mitigating pain after onset of a migraine” value is listed as “ineffective” and the “effect in migraine prevention” value is recorded as “only moderate effects”.
Regarding `CN1CCCC1c1cccnc1` (stereo not shown) [nicotine], the “reduction of medication-induced dyskinesias” value in data set [1] is reported as no more than 50%. Further, the “side effects on use for treatment” value in data set [2] is given as “without side effects such as tachyphylaxis”.

(Values after US20160340334A1, “METHOD FOR ISOLATION OF ALKALOIDS AND AMINO ACIDS, AND CO[…] ALKALOIDS AND AMINO ACIDS” (priority 2015, published 2016).)
